Molecules are shown by their SMILES.

Holding throughout (format): cell-based, human
In one assay the test system is N-CADHERIN
Kind of assay: q-RT-PCR expression of EMT markers in MDA-MB-231 cells under hypoxia: N-CADHERIN
To be noted: althiazide 100 μM, hypoxic conditions (1% O2), vs control, FIG. 11. As to the method:
(§1) The cell cultures are carried out on human breast cancer epithelial cell lines MDA-MB-231 (HTB-26™), resulting from metastases present in a pleural effusion of a patient with a mammary adenocarcinoma. This line is used as a triple negative cancer cell model (no expression of ER-type nuclear estrogen receptors, nuclear progesterone receptors or overexpression of the oncogene encoding HER2 protein (Human Epidermal Growth factor Receptor-2).
(§2) The cells were cultured in DMEM medium (Eurobio, Fance) supplemented with 10% fetal calf serum (FCS) (Eurobio, Fance) at 37° C., 5% CO2. The medium was changed every 3 days.
(§3) The cells were placed in a controlled atmosphere at 1% oxygen 24 hours before the application of the different treatments.
(§4) The expression of the mRNAs is measured by the q-RT-PCR method. The cells were seeded at the density of 500,000 cells/well in 6-well plates. After 24 hours at 37° C., 5% CO2 and 1% O2, the medium was renewed and added the various treatments. RNA was isolated using TRI Reagent® (sigma), assayed and retro-transcribed into complementary DNA using the PrimeScript RT Reagent Kit (Takara). The expression levels of the mRNA of the genes of interest were determined by quantitative PCR (LightCycler® 480 Instrument II) with the primers listed in Table 2: […]
(§5) The results are calculated using the Delta Delta Ct (Δ ΔCt) method.

The next assay has as its system ZEB1. In words: q-RT-PCR expression of EMT markers in MDA-MB-231 cells under hypoxia: ZEB1. To be noted: althiazide 100 μM, hypoxic conditions (1% O2), vs control, FIG. 11. As to the method: as §1, §2, §3, §4, §5
The subject of assay [1] is MDA-MB-231 cells. In words: Migration test on MDA-MB-231 cells (scratch test). To be noted: 10, 50 and 100 μM, 18 h migration, FIG. 10. As to the method:
Cell migration assays on the MDA-MB-231 cell line are performed in vitro in 96-well plates. The MDA-MB-231 cells were seeded at the density of 50000 cells per well, to form a monolayer. The cells are maintained in a DMEM culture medium supplemented with 0.2% fetal calf serum and incubated at 37° C., 5% CO2 and 1% O2 for 24 hours. The cell monolayer is injured with a pipette tip. The cells are then rinsed with PB S to remove the cells in suspension and the different treatments are added, as well as DMEM supplemented with 10% FCS. The cells are incubated for 18 hours at 37° C., 5% CO2 and 20% O2.
A first series of images of each well (center of the well) was carried out at the beginning of the experiment (t=0) and after 18 hours of migration (t=18) using a 4× objective Nikon microscope. The images were analyzed using ImageJ software (National Institutes of Health, USA).
The treatments were carried out in triplicate and the manipulation was carried out 3 times. […]
A first series of images of each well (center of the well) is performed at the beginning of the experiment (t=0) and after 18 h of migration (t=18) using a Nikon microscope −4× lens. The images were analyzed using Image J software (National Institute of Health, USA)

Assay [2] deals with MDA-MB-231 cells. Kind of assay: Cytotoxicity potentiation test: MTT cell viability of MDA-MB-231 cells, doxorubicin +/- althiazide. As to the method: as §1
The cell viability is determined via the IC50 index, measured by the MTT technique (2-(4,5-dimethyl-2-thiazolyl)-3,5-diphenyl-2H-tetrazolium bromide) (Mosmann, 1983). This colorimetric test is based on the reduction of yellow tetrazolium salts into insoluble purple formazan crystals in aqueous solution. The spectrophotometric measurement of the absorbance at 570 nm is directly proportional to the number of viable cells
The cells were seeded in 96-well plates at a density of 25,000 cells per well. After 24 h of culture at 37° C., 5% CO2 and 1% O2, the medium was renewed and supplemented with increasing doses of doxorubicin+/−althiazide. Cells were incubated for 24 h at 37° C., 5% CO2 and 1% O2. The MDA-MB-231 cells were washed and then incubated for 1 hour at 37° C. with 100 μl of a 0.5 mg/ml MTT solution prepared in culture medium. The formazan crystals were dissolved in […] and the absorbance measured at 570 nm using the Tecan Sunrise spectrophotometer. The IC50 was determined using the Graphpad Prism 5.0 software. The treatments were carried out in triplicate and the manipulation was carried out 5 times.
The tests are carried out in cell culture in 96-well plates, on the cell line MDA-MB-231. The MDA-MB-231 cells are seeded in 96-well plates at a density of 10,000 cells and incubated 24 h at 37° C., 5% CO2 and 1% O2. The medium is then renewed and added with increasing concentrations of doxorubicin+/−100 μM althiazide. The cells are incubated for an additional 24 hours at 37° C., 5% CO2 and 1% O2. Treatments were made in triplicas and the experiment was repeated 5 times.
A cell viability test is then performed according to the method described in Materials and methods.
Results are normalized to the control condition (FIG. 12)

For `C=CCSCC1Nc2cc(Cl)c(S(N)(=O)=O)cc2S(=O)(=O)N1` (racemic) [althiazide], in the assay on N-CADHERIN, the “change in expression of N-CADHERIN” value is reported as −33%. For the same compound, in the assay with ZEB1, the “change in expression of ZEB1” value is recorded as −14%. For the same compound, in the assay with MDA-MB-231 cells [1], the “decrease of the migration” value is around 50%. Further, in the assay with MDA-MB-231 cells [2] (100 μM althiazide added to doxorubicin, 24 h, 1% O2), the “reduction of the IC50 of doxorubicin” value is recorded as 45%. In the assay on MDA-MB-231 cells [2] (100 μM althiazide, doxorubicin between 25 and 2.5 μM, FIG. 12), the “increase of the effects of doxorubicin” value is given as “about 15%”.

Values taken from patent US20230137849A1, “USE OF A COMPOUND OF THE DIURETICS CLASS FOR TREATING CANCER” (AZELEAD, priority 2017, published 2023).
